Assay results from paper PMC7367369, “A small library of chalcones induce liver cancer cell death through Akt phosphorylation inhibition” (Scientific Reports, 2020).
Where two headings read alike, the source gives them in different places.

Assays:
Huh7 = experiment: NCI-60 sulforhodamine B (SRB) cytotoxicity assay, Huh7; format: cell-based, human; conditions: Homo sapiens, read-out: IC50 Huh7
Description: (§1) The bioactivities of the synthesized chalcones were assessed on human liver cancer cell lines and on DPSCs with NCI-SRB assay in vitro. DPSCs used to asses the bioactivity of chalcones on untransformed control cells with the potential of hepatic lineage. […] We also included 5-Fluorouracil which is used in clinics for gastrointestinal cancers and Sorafenib. All results were normalized to DMSO negative control measurements. The experiment was performed in triplicate.
(§2) Well differentiated human primary liver cancer cell lines Huh7, HepG2 and Hep3B, and poorly differentiated Mahlavu, FOCUS and SNU475 HCC cells were cultured in Dulbecco’s Modified Eagle’s Standard (DMEM) medium supplemented with 10% Fetal Bovine Serum (FBS), 100 units/mL penicillin and 100 µg/mL streptomycin (Gibco, Invitrogen, Carlsbad, CA, USA). 0.1 mM nonessential amino acids (NEAA) which are specific to HCC cell lines also added to culture media. Cells were cultured in a 5% CO2 incubator at 37^∘C
(§3) Primary liver cancer cells Huh7, HepG2, Hep3B, Mahlavu, FOCUS, Snu475 along with hepatic progenitor Dental pulp stem cells were seeded into 96-well plates (1,000–3,000 HCC cell/well and 10,000 cells DPSC/well ) for 24 h. The cells were then treated with increasing concentrations of the chalcones ( 2.5-40μM ). DMSO (AppliChem Biochemica, Darmstadt, Germany) was used as negative control. The growth has stopped at the end of 72 h by fixing cold with 10% (v/v) trichloroacetic acid (Merck, Schuchardt, Germany). Cells were then stained with 0.4% (m/v) of sulforhodamine (Sigma-Aldrich, St. Louis, USA) in 1% acetic acid solution. The absorbency values were acquired at 515 nm. All experiments were done in triplicate.

Mahlavu = experiment: Real-time cell electronic sensing (RT-CES) growth analysis, Mahlavu; format: cell-based; conditions: Homo sapiens
Description: The selected 3 compounds were further analyzed with real-time cell electronic sensing (RT-CES) system to assess the real-time growth behavior of the cells treated with the compounds. Huh7 and Mahlavu liver cancer cells were treated with the selected chalcones and monitored with RT-CES. Results of the compounds were normalized to data of negative control DMSO.
Figure 2 Real-time cell growth analysis. Human liver cancer cells Huh7 (left panel) and Mahlavu (right panel) were treated with the selected compounds. Cell index measurements were obtained by RT-CES software. DMSO was used as negative control. (A) The growth inhibition values of the compounds were obtained by the normalization with DMSO. Experiments were performed in triplicate. (B) IC50 values calculated from RT-CES experiment data. TEXT PRINTED IN THE PICTURE: (B) 1: Huh7 24h: 3.7; Huh7 72h: 5.2; Mahlavu 24h: 1.2; Mahlavu 72h: 2.3 | (B) 9: Huh7 24h: 16.1; Huh7 72h: 11.5; Mahlavu 24h: 4.9; Mahlavu 72h: 6.8 | (B) 11: Huh7 24h: 8.7; Huh7 72h: 8.8; Mahlavu 24h: 4.9; Mahlavu 72h: 6.8 DOUBTS OF THE COPYIST ABOUT THIS PICTURE: Panel B table: the picture prints no measure and no unit for the values
Huh7 and Mahlavu cells were inoculated into the e-plate (1000–2000 cells/well). The attachment, spreading, and proliferation of the cells were monitored every 30 minutes using the Xcelligence® Real-Time Cell Analysis system (ACEA Biosciences Inc.) in a cell culture incubator. […] When cells reach to an cell index (CI) impedance values about 1.5 usually in 24 hours cells were treated with the chalcones 1, 9 and 11. DMSO was used as a negative control. Each experiment was repeated three times. The CI value was noted every 10 minutes for the first 24 hours and then every 30 minutes upon chalcone treatments. The cell inhibition rate calculated as follows (%)=[1-(CItreatedcells/CIDMSO)]×100 .

[1] = system: pAkt (Ser473) in Mahlavu cells; experiment: Western blot, phosphorylated Akt levels; format: cell-based, human; conditions: IC50 concentrations (Fig. 2), 24 h
Description: Figure 4 Proteins targeted by the compounds. Human liver cancer cells (Mahlavu) were treated with the IC50 concentrations of the selected compounds or DMSO control for 24 h. […] (B–D) Quantification of the results using ImageJ software. (E) Schematic representation of the molecular mechanism of action of the compounds. Blocked signaling is crossed.
In order to investigate the significant bioactivity of the chalcones 1, 9 and 11 on human liver cancer cell line Mahlavu which has an hyperactive PI3K/Akt pathway due to PTEN-deficiency[13], we analyzed the effect of the chalcones on the active phosphorylated Akt levels in this cell line.
Poorly differentiated liver cancer cell line Mahlavu cells were cultured in 100 mm culture dish for 24 h. […] Anti-PARP antibody (Cell Signaling, 9532), pAkt (Ser473) antibody (Cell Signaling, 9271), Akt antibody (Cell Signaling, 9272), pNFkB-p65 (Ser468) antibody (Snat Cruz, sc101750), p21 antibody (Millipore, 05345), pRb (Ser807/811) antibody (Cell Signaling, 9308), Rb antibody (Santa Cruz, sc102), actin antibody (Sigma, A5441) and calnexin antibody (Sigma, C4731) were used as primary antibodies. Anti-rabbit (6154) and anti-mouse (0168) secondary antibodies were used. ImageJ tool ([42]) used for protein band intensity comparison. Original Full length blots are given as Supplementary Information.

HepG2 = experiment: NCI-60 sulforhodamine B (SRB) cytotoxicity assay, HepG2; format: cell-based, human; conditions: Homo sapiens, HepG2; SRB, 72 h, 2.5–40 μM, triplicate; read-out: IC50 HepG2
Description: as §1, §2
as §3, with “The absorbency values were acquired at 515 nm.” left out

[2] = 24h, read-out: IC50 values calculated from RT-CES experiment data, Mahlavu 24h
[3] = 72h, read-out: IC50 values calculated from RT-CES experiment data, Mahlavu 72h
[4] = Huh-7, SRB, 72 h, 2.5–40 μM, triplicate

Structure (SMILES)	IC50 (Huh7; Huh-7, 72 h)	IC50 (Mahlavu; [2])	IC50 (Mahlavu; [3])	levels of pAkt [1]	IC50 (HepG2)	IC50 (Huh7; [4])
O=C(/C=C/c1ccccc1)c1ccccc1 [compound 9]	5.3 µM	4.9 µM	6.8 µM	decrease in the levels of pAkt	7.3 µM	
O=C(/C=C/c1ccc(Cl)cc1)c1ccccc1 [compound 11]		4.9 µM	6.8 µM	decrease in the levels of pAkt	6.5 µM	4.3 µM
COc1ccc(C(=O)/C=C/c2cccc([N+](=O)[O-])c2)cc1 [compound 1]		1.2 µM	2.3 µM	decrease in the levels of pAkt	4.2 µM	< 2.5 µM
